# Results: patent publication US5990295A (priority 1998, dated 1999)
# System: ω-conotoxin GVIA binding site on brain membrane preparations
# Design: species or system frogs, chicks and rats
substance,measurement,value
ω-conotoxin GVIA,displacement of 125I-GVIA,approximately 90%
same,displacement of 125I-GVIA label,approximately 98%
